Structures can show the parent of a compound that is named as a salt. Where two headings read alike, the source gives them in different places.
System: caudate lesioned mouse
Experiment: caudate lesioned mouse test (anti-parkinson activity)
Assay type: in vivo
Conditions: for ED50: caudate lesioned mouse; for responders at 5.2 µmol/kg: dose 0.0052 m. mole/kg; for responders at 13 µmol/kg: dose 0.013 m. mole/kg; for responders at 132 µmol/kg: dose 0.132 m. mole/kg; for Molar Potency Ratio Claimed/Ref. Ester: claimed N-propyl ester vs corresponding N-methyl reference ester
Description: An index of anti-parkinson activity was determined using the caudate lesioned mouse test described by Lotti, Life Sci., 10, 781-789 (1971). The mice having unilateral lesions of the caudate nucleus prepared according to the method of Lotti supra were observed immediately after the surgical procedure for strong postural asymmetries directed to the same side as the lesion. When this asymmetry was not observed, the mice were discarded. Operated mice were allowed at least 14 days to recover prior to drug testing. The lesioned mice were tested with apomorphine using 1.7 mg./kg. of base administered intraperitoneally in a 1% suspension in gum tragacanth. […] Only those mice which twisted or circled toward the lesioned side in all three test periods after the apomorphine injection were retained for further drug testing. The test drugs were all administered in 1% gum tragacanth suspension in a volume of 0.1 ml./10 g. of body weight. Doses were expressed in mg./kg. of free base.
Results of tests in the caudate lesioned mouse test described above which were obtained on the compounds of the invention are given in the table below identified, in each case, by the example numbers above where their preparations are described. Corresponding data for reference apomorphine diesters described in German patent application No. 2,154,162 are given in a side-by-side relationship for a number of the species. The reference compounds, designated Ref. 1, Ref. 1B, Ref. 1C, Ref. 1D, Ref. 1E, Ref. 1F, Ref. 2 and Ref. 2A correspond, respectively, to the compounds of the invention identified by Examples 1, 1B, 1C, 1D, 1E, 1F, 2 and 2A and differ from the latter only in having a methyl group on the apomorphine nitrogen from instead of an n-propyl group as present in the instant compounds.

[1] = Mus musculus, 0.5 h, dose 0.026 m. mole/kg, 1/2 h post-drug, read-out: No. Mice Affected/No. Mice Tested, 1/2 h (converted)
[2] = Mus musculus, 6 h post-drug, read-out: No. Mice Affected/No. Mice Tested, 6 h
[3] = Mus musculus, 24 h post-drug, read-out: No. Mice Affected/No. Mice Tested, 24 h
[4] = Mus musculus, dose 0.026 m. mole/kg, 1 h post-drug, read-out: No. Mice Affected/No. Mice Tested, 1 h (converted)
[5] = Mus musculus, dose 0.026 m. mole/kg, 2 h post-drug, read-out: No. Mice Affected/No. Mice Tested, 2 h (converted)
[6] = Mus musculus, dose 0.026 m. mole/kg, 4 h post-drug, read-out: No. Mice Affected/No. Mice Tested, 4 h (converted)
[7] = Mus musculus, dose 0.026 m. mole/kg, 6 h post-drug, read-out: No. Mice Affected/No. Mice Tested, 6 h (converted)
[8] = Mus musculus, dose 0.026 m. mole/kg, 24 h post-drug, read-out: No. Mice Affected/No. Mice Tested, 24 h
[9] = Mus musculus, dose 0.026 m. mole/kg, total, read-out: No. Mice Affected/No. Mice Tested, Total (converted)
[10] = Mus musculus, 0.5 h, 1/2 h post-drug, read-out: No. Mice Affected/No. Mice Tested, 1/2 h (converted)
[11] = Mus musculus, 1 h post-drug, read-out: No. Mice Affected/No. Mice Tested, 1 h (converted)
[12] = Mus musculus, 2 h post-drug, read-out: No. Mice Affected/No. Mice Tested, 2 h (converted)
[13] = Mus musculus, 4 h post-drug, read-out: No. Mice Affected/No. Mice Tested, 4 h (converted)
[14] = Mus musculus, total, read-out: No. Mice Affected/No. Mice Tested, Total (converted)
[15] = Mus musculus, 6 h post-drug, read-out: No. Mice Affected/No. Mice Tested, 6 h (converted)
[16] = Mus musculus, 24 h post-drug, read-out: No. Mice Affected/No. Mice Tested, 24 h (converted)
[17] = Mus musculus, 0.5 h, read-out: No. Mice Affected/No. Mice Tested, 1/2 h
[18] = Mus musculus, 1 h, read-out: No. Mice Affected/No. Mice Tested, 1 h
[19] = Mus musculus, 4 h, read-out: No. Mice Affected/No. Mice Tested, 4 h
[20] = Mus musculus, 6 h, read-out: No. Mice Affected/No. Mice Tested, 6 h
[21] = Mus musculus, 24 h, read-out: No. Mice Affected/No. Mice Tested, 24 h
[22] = Mus musculus, read-out: No. Mice Affected/No. Mice Tested, Total
[23] = Mus musculus, 2 h, read-out: No. Mice Affected/No. Mice Tested, 2 h

CCCN1CCc2cccc3c2C1Cc1ccc(OC(=O)c2cc(OC)c(OC)c(OC)c2)c(OC(=O)c2cc(OC)c(OC)c(OC)c2)c1-3 (stereo not shown) [Ex. 1L, N-Propylnorapomorphine bis-3,4,5-trimethoxybenzoate hydrochloride]
ED50 (ED50, read-out: ED50): 15 µmol/kg
responders at 5.2 µmol/kg (Mus musculus, 0.5 h, 1/2 h post-drug, read-out: No. Mice Affected/No. Mice Tested, 1/2 h): 0%
responders at 26 µmol/kg [1]: 75%
responders at 5.2 µmol/kg (Mus musculus, 1 h post-drug, read-out: No. Mice Affected/No. Mice Tested, 1 h): 0%
responders at 5.2 µmol/kg (Mus musculus, 2 h post-drug, read-out: No. Mice Affected/No. Mice Tested, 2 h): 0%
responders at 5.2 µmol/kg (Mus musculus, 4 h post-drug, read-out: No. Mice Affected/No. Mice Tested, 4 h): 0%
responders at 5.2 µmol/kg [2]: 0%
responders at 5.2 µmol/kg [3]: 0%
responders at 5.2 µmol/kg (Mus musculus, total, read-out: No. Mice Affected/No. Mice Tested, Total): 0%
responders at 26 µmol/kg [4]: 75%
responders at 26 µmol/kg [5]: 100%
responders at 26 µmol/kg [6]: 100%
responders at 26 µmol/kg [7]: 100%
responders at 26 µmol/kg [8]: 0%
responders at 26 µmol/kg [9]: 100%

CCCN1CCc2cccc3c2C1Cc1ccc(OC(=O)C2CC2)c(OC(=O)C2CC2)c1-3 (stereo not shown) [Ex. 1M, N-Propylnorapomorphine bis-cyclopropanecarboxylate]
ED50 (ED50, read-out: ED50): 13 µmol/kg
responders at 13 µmol/kg [10]: 50%
responders at 26 µmol/kg [1]: 100%
responders at 132 µmol/kg [10]: 100%
responders at 13 µmol/kg [11]: 50%
responders at 13 µmol/kg [12]: 50%
responders at 13 µmol/kg [13]: 25%
responders at 13 µmol/kg [2]: 0%
responders at 13 µmol/kg [3]: 0%
responders at 13 µmol/kg [14]: 50%
responders at 26 µmol/kg [4]: 75%
responders at 26 µmol/kg [5]: 75%
responders at 26 µmol/kg [6]: 75%
responders at 26 µmol/kg [7]: 75%
responders at 26 µmol/kg [8]: 0%
responders at 26 µmol/kg [9]: 100%
responders at 132 µmol/kg [11]: 100%
responders at 132 µmol/kg [12]: 100%
responders at 132 µmol/kg [13]: 100%
responders at 132 µmol/kg [15]: 100%
responders at 132 µmol/kg [16]: 100%
responders at 132 µmol/kg [14]: 100%

CCCN1CCc2cccc3c2C1Cc1ccc(OC(C)=O)c(OC(C)=O)c1-3 (stereo not shown) [Ex. 2, N-propylnorapomorphine diacetate]
responders at 26 µmol/kg [17]: 100%
responders at 52 µmol/kg [17]: 25%
responders at 104 µmol/kg [17]: 50%
responders at 26 µmol/kg [18]: 100%
responders at 52 µmol/kg [18]: 25%
responders at 104 µmol/kg [18]: 75%
responders at 26 µmol/kg [19]: 50%
responders at 52 µmol/kg [19]: 25%
responders at 104 µmol/kg [19]: 25%
responders at 26 µmol/kg [20]: 100%
responders at 52 µmol/kg [20]: 75%
responders at 104 µmol/kg [20]: 50%
responders at 26 µmol/kg [21]: 50%
responders at 52 µmol/kg [21]: 0%
responders at 104 µmol/kg [21]: 50%
responders at 26 µmol/kg [22]: 100%
responders at 52 µmol/kg [22]: 75%
responders at 104 µmol/kg [22]: 75%
Molar Potency Ratio Claimed/Ref. Ester: ≥ 16

CCCCC(=O)Oc1ccc2c(c1OC(=O)CCCC)-c1cccc3c1C(C2)N(CCC)CC3 (stereo not shown) [Ex. 2A, N-propylnorapomorphine dipentanoate hydrochloride]
responders at 26 µmol/kg [1]: 0%
responders at 132 µmol/kg [10]: 50%
responders at 26 µmol/kg [4]: 0%
responders at 26 µmol/kg [5]: 0%
responders at 26 µmol/kg [6]: 0%
responders at 26 µmol/kg [7]: 0%
responders at 26 µmol/kg [8]: 0%
responders at 26 µmol/kg [9]: 0%
responders at 132 µmol/kg [11]: 75%
responders at 132 µmol/kg [12]: 75%
responders at 132 µmol/kg [13]: 75%
responders at 132 µmol/kg [15]: 75%
responders at 132 µmol/kg [16]: 75%
responders at 132 µmol/kg [14]: 75%
Molar Potency Ratio Claimed/Ref. Ester: ≥ 3

CCCCCCCCCCCCCCCC(=O)Oc1ccc2c(c1OC(=O)CCCCCCCCCCCCCCC)-c1cccc3c1C(C2)N(CCC)CC3 (stereo not shown) [Ex. ID, N-Propylnorapomorphine dihexadecanoate]
responders at 52 µmol/kg (Mus musculus, 0.5 h, dose 0.052 m. mole/kg, 1/2 h post-drug, read-out: No. Mice Affected/No. Mice Tested, 1/2 h (converted)): 0%
responders at 132 µmol/kg [10]: 0%
responders at 52 µmol/kg (Mus musculus, dose 0.052 m. mole/kg, 1 h post-drug, read-out: No. Mice Affected/No. Mice Tested, 1 h (converted)): 0%
responders at 52 µmol/kg (Mus musculus, dose 0.052 m. mole/kg, 4 h post-drug, read-out: No. Mice Affected/No. Mice Tested, 4 h (converted)): 25%
responders at 52 µmol/kg (Mus musculus, dose 0.052 m. mole/kg, 6 h post-drug, read-out: No. Mice Affected/No. Mice Tested, 6 h (converted)): 25%
responders at 52 µmol/kg (Mus musculus, dose 0.052 m. mole/kg, 24 h post-drug, read-out: No. Mice Affected/No. Mice Tested, 24 h): 0%
responders at 52 µmol/kg (Mus musculus, dose 0.052 m. mole/kg, total, read-out: No. Mice Affected/No. Mice Tested, Total (converted)): 25%
responders at 132 µmol/kg [11]: 0%
responders at 132 µmol/kg [13]: 100%
responders at 132 µmol/kg [15]: 0%
responders at 132 µmol/kg [16]: 33.3%
responders at 132 µmol/kg [14]: 100%
Molar Potency Ratio Claimed/Ref. Ester: ≥ 8

CCCN1CCc2cccc3c2C1Cc1ccc(O)c(O)c1-3 (stereo not shown) [N-propylnorapomorphine]
ED50 (Mus musculus, po, read-out: ED50, on oral administration, oral): 3.2 µmol/kg

CCC(=O)Oc1ccc2c(c1OC(=O)CC)-c1cccc3c1C(C2)N(C)CC3 (stereo not shown) [Ref. 1, reference compound]
responders at 26 µmol/kg [17]: 0%
responders at 52 µmol/kg [17]: 25%
responders at 104 µmol/kg [17]: 41.7%
responders at 208 µmol/kg [17]: 100%
responders at 26 µmol/kg [18]: 0%
responders at 52 µmol/kg [18]: 25%
responders at 104 µmol/kg [18]: 41.7%
responders at 208 µmol/kg [18]: 100%
responders at 26 µmol/kg [23]: 0%
responders at 52 µmol/kg [23]: 0%
responders at 104 µmol/kg [23]: 0%
responders at 208 µmol/kg [23]: 100%
responders at 26 µmol/kg [19]: 0%
responders at 52 µmol/kg [19]: 0%
responders at 104 µmol/kg [19]: 0%
responders at 208 µmol/kg [19]: 50%
responders at 26 µmol/kg [20]: 0%
responders at 52 µmol/kg [20]: 0%
responders at 104 µmol/kg [20]: 0%
responders at 208 µmol/kg [20]: 0%
responders at 26 µmol/kg [21]: 0%
responders at 208 µmol/kg [21]: 0%
ED50 (Mus musculus, ED50): 98 µmol/kg
responders at 26 µmol/kg [22]: 0%
responders at 52 µmol/kg [22]: 25%
responders at 104 µmol/kg [22]: 41.7%
responders at 208 µmol/kg [22]: 100%

CC(C)C(=O)Oc1ccc2c(c1OC(=O)C(C)C)-c1cccc3c1C(C2)N(C)CC3 (stereo not shown) [Ref. 1B, reference compound]
responders at 208 µmol/kg [17]: 0%
responders at 208 µmol/kg [18]: 0%
responders at 208 µmol/kg [19]: 25%
responders at 208 µmol/kg [20]: 0%
responders at 208 µmol/kg [21]: 0%
responders at 208 µmol/kg [22]: 25%

— US4126616A, “N-propylnorapomorphine diesters” (Hinshaw; William B., priority 1976, dated 1978)
